Assay results: ChEMBL document CHEMBL2176906, “Diterpenoids isolated from Sideritis species protect astrocytes against oxidative stress via Nrf2” (J Nat Prod, 2012)
The source made the active and inactive calls. No cut-off for these calls is given here.

System: U373 MG
Assay: Induction of CAT activity in human U373MG cells assessed per mg protein preincubated at 5 uM for 24 hrs before H2O2 challenge by fluorimetric method (reference value: 18.9 +/- 0.4 UI/mg protein)
Type: functional, U-373MG ATCC
Conditions: not given

Structure (SMILES) | Activity [IU]
C=CC(=C)CC[C@H]1[C@]2(C)CCC[C@](C)(CO)[C@H]2[C@H](O)C[C@]1(C)O [ANDALUSOL] | 22.1

System: U-373MG ATCC
Assay: Antioxidant activity in human U373MG cells assessed as reduction in H2O2-induced morphological changes preincubated at 10 uM for 24 hrs before H2O2 challenge by phase-contrast microscopy
Type: functional, cell-based
Conditions: not given

Structure (SMILES) | Activity
C=CC(=C)CC[C@H]1[C@]2(C)CCC[C@](C)(CO)[C@H]2[C@H](O)C[C@]1(C)O [ANDALUSOL] | Active

System: U373 MG
Assay: Inhibition of H2O2-induced oxidative stress in human U373MG cells assessed as GSH level per mg protein at 10 uM by fluorimetric method (reference value: 17.1 +/- 1.7 nmol/mg protein)
Type: functional, U-373MG ATCC
Conditions: not given

Structure (SMILES) | Activity [nmol]
C=CC(=C)CC[C@H]1[C@]2(C)CCC[C@](C)(CO)[C@H]2[C@H](O)C[C@]1(C)O [ANDALUSOL] | 39.8

System: not listed separately
Assay: Cytotoxicity against human U373MG cells assessed as LDH release at 1 to 10 uM after 24 hrs by LDH assay
Type: cell-based
Conditions: u-373mg atcc

Structure (SMILES) | Activity [%]
C=CC(=C)CC[C@H]1[C@]2(C)CCC[C@](C)(CO)[C@H]2[C@H](O)C[C@]1(C)O [ANDALUSOL] | < 10

Biological target: T1, Nuclear factor erythroid 2-related factor 2 (Homo sapiens) (UniProt Q16236)
T1 sequence (whole entry): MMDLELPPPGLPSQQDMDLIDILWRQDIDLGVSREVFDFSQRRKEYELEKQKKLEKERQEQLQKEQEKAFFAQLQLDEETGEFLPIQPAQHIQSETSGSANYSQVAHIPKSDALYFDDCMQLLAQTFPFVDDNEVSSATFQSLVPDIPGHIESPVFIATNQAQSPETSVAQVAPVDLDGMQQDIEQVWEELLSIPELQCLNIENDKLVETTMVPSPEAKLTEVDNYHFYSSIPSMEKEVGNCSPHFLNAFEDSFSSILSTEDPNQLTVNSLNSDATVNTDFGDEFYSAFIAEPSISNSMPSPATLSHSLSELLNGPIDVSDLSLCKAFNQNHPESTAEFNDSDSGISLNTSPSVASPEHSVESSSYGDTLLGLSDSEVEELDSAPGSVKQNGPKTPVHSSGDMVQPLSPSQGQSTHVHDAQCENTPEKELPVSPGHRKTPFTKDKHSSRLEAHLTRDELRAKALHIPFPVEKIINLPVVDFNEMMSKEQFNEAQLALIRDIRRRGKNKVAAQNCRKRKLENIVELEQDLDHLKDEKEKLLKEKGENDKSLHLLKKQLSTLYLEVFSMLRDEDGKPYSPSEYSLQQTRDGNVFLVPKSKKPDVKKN
Assay: Induction of Nrf2-mediated GPx protein expression in H2O2-stimulated human U373MG cells preincubated at 10 uM for 24 hrs before H2O2 challenge by Western blot method
Type: cell-based
Conditions: U-373MG ATCC

Structure (SMILES) | Activity
C=CC(=C)CC[C@H]1[C@]2(C)CCC[C@](C)(CO)[C@H]2[C@H](O)C[C@]1(C)O [ANDALUSOL] | Active

System: U373 MG
Assay: Induction of HO-1 activity in human U373MG cells assessed as bilirubin production per mg protein preincubated at 10 uM for 24 hrs before H2O2 challenge by fluorimetric method (reference value: 19.6 +/-3.5 pmol/hr/mg protein)
Type: functional, U-373MG ATCC
Conditions: not given

Structure (SMILES) | Activity [pmol/h]
C=CC(=C)CC[C@H]1[C@]2(C)CCC[C@](C)(CO)[C@H]2[C@H](O)C[C@]1(C)O [ANDALUSOL] | 33.6

System: U373 MG
Assay: Induction of selenium-dependent GPx activity in human U373MG cells assessed as […] per mg protein preincubated at 10 uM for 24 hrs before H2O2 challenge by fluorimetric method (reference value: 14.7 +/- 2.9 nmol/min/mg protein)
Type: functional, U-373MG ATCC
Conditions: not given

Structure (SMILES) | Activity [nmol/min]
C=CC(=C)CC[C@H]1[C@]2(C)CCC[C@](C)(CO)[C@H]2[C@H](O)C[C@]1(C)O [ANDALUSOL] | 29.9

System: U373 MG
Assay: Induction of total GPx activity in human U373MG cells assessed as […] per mg protein preincubated at 5 uM for 24 hrs before H2O2 challenge by fluorimetric method (reference value: 58.5 +/- 5.1 nmol/min/mg protein)
Type: functional, U-373MG ATCC
Conditions: not given

Structure (SMILES) | Activity [nmol/min]
C=CC(=C)CC[C@H]1[C@]2(C)CCC[C@](C)(CO)[C@H]2[C@H](O)C[C@]1(C)O [ANDALUSOL] | 89.1

System: U373 MG
Assay: Inhibition of H2O2-induced oxidative stress in human U373MG cells assessed as GSH/GSSG ratio at 5 uM (reference value: 1.8 +/- 0.1 )
Type: functional, U-373MG ATCC
Conditions: not given

Structure (SMILES) | Ratio
C=CC(=C)CC[C@H]1[C@]2(C)CCC[C@](C)(CO)[C@H]2[C@H](O)C[C@]1(C)O [ANDALUSOL] | 5.1

System: U373 MG
Assay: Inhibition of H2O2-induced oxidative stress in human U373MG cells assessed as GSSG level per mg protein at 5 uM by fluorimetric method (reference value: 9.2 +/- 0.9 nmol/mg protein)
Type: functional, U-373MG ATCC
Conditions: not given

Structure (SMILES) | Activity [nmol]
C=CC(=C)CC[C@H]1[C@]2(C)CCC[C@](C)(CO)[C@H]2[C@H](O)C[C@]1(C)O [ANDALUSOL] | 7

Biological target: T1, Nuclear factor erythroid 2-related factor 2 (Homo sapiens)
Assay: Induction of Nrf2-mediated SOD protein expression in H2O2-stimulated human U373MG cells preincubated at 5 uM for 24 hrs before H2O2 challenge by Western blot method
Type: cell-based
Conditions: U-373MG ATCC

Structure (SMILES) | Activity
C=CC(=C)CC[C@H]1[C@]2(C)CCC[C@](C)(CO)[C@H]2[C@H](O)C[C@]1(C)O [ANDALUSOL] | Active

System: U373 MG
Assay: Inhibition of H2O2-induced lipid peroxidation in human U373MG cells assessed as reduction in MDA levels per mg protein at 5 uM by HPLC analysis (reference value: 0.95 +/- 0.03 nmol/mg protein)
Type: functional, U-373MG ATCC
Conditions: not given

Structure (SMILES) | Activity [nmol]
C=CC(=C)CC[C@H]1[C@]2(C)CCC[C@](C)(CO)[C@H]2[C@H](O)C[C@]1(C)O [ANDALUSOL] | 0.62

System: U373 MG
Assay: Inhibition of AAPH-induced oxidative stress in human U373MG cells assessed as peroxy radical scavenging activity at 5 uM by ORAC assay
Type: functional, cell-based
Conditions: U-373MG ATCC

Structure (SMILES) | Activity
C=CC(=C)CC[C@H]1[C@]2(C)CCC[C@](C)(CO)[C@H]2[C@H](O)C[C@]1(C)O [ANDALUSOL] | inactive

System: U373 MG
Assay: Induction of ROS production in human U373MG cells at 10 uM after 24 hrs by DCFH-DA assay
Type: functional, cell-based
Conditions: U-373MG ATCC

Structure (SMILES) | Activity
C=CC(=C)CC[C@H]1[C@]2(C)CCC[C@](C)(CO)[C@H]2[C@H](O)C[C@]1(C)O [ANDALUSOL] | inactive

Biological target: T1, Nuclear factor erythroid 2-related factor 2 (Homo sapiens)
Assay: Induction of Nrf2-mediated CAT protein expression in H2O2-stimulated human U373MG cells preincubated at 5 uM for 24 hrs before H2O2 challenge by Western blot method
Type: cell-based
Conditions: U-373MG ATCC

Structure (SMILES) | Activity
C=CC(=C)CC[C@H]1[C@]2(C)CCC[C@](C)(CO)[C@H]2[C@H](O)C[C@]1(C)O [ANDALUSOL] | Active

System: U373 MG
Assay: Inhibition of H2O2-induced oxidative stress in human U373MG cells assessed as GSH/GSSG ratio at 10 uM (reference value: 1.8 +/- 0.1 )
Type: functional, U-373MG ATCC
Conditions: not given

Structure (SMILES) | Ratio
C=CC(=C)CC[C@H]1[C@]2(C)CCC[C@](C)(CO)[C@H]2[C@H](O)C[C@]1(C)O [ANDALUSOL] | 5.7

System: U373 MG
Assay: Induction of selenium-dependent GPx activity in human U373MG cells assessed as […] per mg protein preincubated at 5 uM for 24 hrs before H2O2 challenge by fluorimetric method (reference value: 14.7 +/- 2.9 nmol/min/mg protein)
Type: functional, U-373MG ATCC
Conditions: not given

Structure (SMILES) | Activity [nmol/min]
C=CC(=C)CC[C@H]1[C@]2(C)CCC[C@](C)(CO)[C@H]2[C@H](O)C[C@]1(C)O [ANDALUSOL] | 23.9

System: U373 MG
Assay: Inhibition of H2O2-induced oxidative stress in human U373MG cells assessed as GSH level per mg protein at 5 uM by fluorimetric method (reference value: 17.1 +/- 1.7 nmol/mg protein)
Type: functional, U-373MG ATCC
Conditions: not given

Structure (SMILES) | Activity [nmol]
C=CC(=C)CC[C@H]1[C@]2(C)CCC[C@](C)(CO)[C@H]2[C@H](O)C[C@]1(C)O [ANDALUSOL] | 36.3

System: U373 MG
Assay: Induction of Glutathione reductase activity in human U373MG cells assessed as […] per mg protein preincubated at 5 uM for 24 hrs before H2O2 challenge by fluorimetric method (reference value: 9.3 +/- 2.2 nmol/min/mg protein)
Type: functional, U-373MG ATCC
Conditions: not given

Structure (SMILES) | Activity [nmol/min]
C=CC(=C)CC[C@H]1[C@]2(C)CCC[C@](C)(CO)[C@H]2[C@H](O)C[C@]1(C)O [ANDALUSOL] | 19.1

System: U373 MG
Assay: Induction of CAT activity in human U373MG cells assessed per mg protein preincubated at 10 uM for 24 hrs before H2O2 challenge by fluorimetric method (reference value: 18.9 +/- 0.4 UI/mg protein)
Type: functional, U-373MG ATCC
Conditions: not given

Structure (SMILES) | Activity [IU]
C=CC(=C)CC[C@H]1[C@]2(C)CCC[C@](C)(CO)[C@H]2[C@H](O)C[C@]1(C)O [ANDALUSOL] | 23.7

System: U373 MG
Assay: Induction of ROS production in human U373MG cells at 5 uM after 24 hrs by DCFH-DA assay
Type: functional, cell-based
Conditions: U-373MG ATCC

Structure (SMILES) | Activity
C=CC(=C)CC[C@H]1[C@]2(C)CCC[C@](C)(CO)[C@H]2[C@H](O)C[C@]1(C)O [ANDALUSOL] | inactive

System: U373 MG
Assay: Induction of HO-1 activity in human U373MG cells assessed as bilirubin production per mg protein preincubated at 5 uM for 24 hrs before H2O2 challenge by fluorimetric method (reference value: 19.6 +/-3.5 pmol/hr/mg protein)
Type: functional, U-373MG ATCC
Conditions: not given

Structure (SMILES) | Activity [pmol/h]
C=CC(=C)CC[C@H]1[C@]2(C)CCC[C@](C)(CO)[C@H]2[C@H](O)C[C@]1(C)O [ANDALUSOL] | 30.6

System: U373 MG
Assay: Induction of total GPx activity in human U373MG cells assessed as […] per mg protein preincubated at 10 uM for 24 hrs before H2O2 challenge by fluorimetric method (reference value: 58.5 +/- 5.1 nmol/min/mg protein)
Type: functional, U-373MG ATCC
Conditions: not given

Structure (SMILES) | Activity [nmol/min]
C=CC(=C)CC[C@H]1[C@]2(C)CCC[C@](C)(CO)[C@H]2[C@H](O)C[C@]1(C)O [ANDALUSOL] | 82.4

System: U373 MG
Assay: Inhibition of H2O2-induced lipid peroxidation in human U373MG cells assessed as reduction in MDA levels per mg protein at 10 uM by HPLC analysis (reference value: 0.95 +/- 0.03 nmol/mg protein)
Type: functional, U-373MG ATCC
Conditions: not given

Structure (SMILES) | Activity [nmol]
C=CC(=C)CC[C@H]1[C@]2(C)CCC[C@](C)(CO)[C@H]2[C@H](O)C[C@]1(C)O [ANDALUSOL] | 0.51

System: U373 MG
Assay: Induction of Nrf2 nuclear protein expression in H2O2-stimulated human U373MG cells preincubated at 5 uM for 24 hrs before H2O2 challenge by Western blot method
Type: functional, cell-based
Conditions: U-373MG ATCC

Structure (SMILES) | Activity
C=CC(=C)CC[C@H]1[C@]2(C)CCC[C@](C)(CO)[C@H]2[C@H](O)C[C@]1(C)O [ANDALUSOL] | Active

Biological target: T1, Nuclear factor erythroid 2-related factor 2 (Homo sapiens)
Assay: Induction of Nrf2-mediated GPx protein expression in H2O2-stimulated human U373MG cells preincubated at 5 uM for 24 hrs before H2O2 challenge by Western blot method
Type: cell-based
Conditions: U-373MG ATCC

Structure (SMILES) | Activity
C=CC(=C)CC[C@H]1[C@]2(C)CCC[C@](C)(CO)[C@H]2[C@H](O)C[C@]1(C)O [ANDALUSOL] | Active
